Experimental data from patent US20250361239A1, “PROTEIN DEGRADERS AND USES THEREOF” (ZHUHAI YUFAN BIOTECHNOLOGIES CO., LTD., priority 2022, published 2025).

What follows are compounds tested on Hep3B cells (assay: Hep3B cell killing experiment (CellTiter-Glo cell viability)). Settings: Homo sapiens, 48 h incubation, CTG luminescence.
Format: cell-based
Method: (§1) Hep3B cell lines were purchased from ATCC (Cat #ATCC® HB-8064™), EMEM media were purchased from ATCC (Cat #ATCC® 30-2003™), FBS was purchased from Gibco (Cat #10091148), celltiter-glo luminescent cell viability assay was purchased from promega (Cat #G7572), and 96-well plates were purchased from coming (Cat #3610).
The effect of compounds on the growth of Hep3B cells was determined by measuring cell viability and growth rate. Firstly, the cells were digested with pancreatin, and the digestion was then terminated with medium. The cells were centrifuged, and the supernatant was discarded. The centrifuged cells were resuspended in a fresh complete medium, and the cell density was adjusted to 5×10^4 cells/mL. The resuspended cells were inoculated into two identical opaque 96-well cell culture plates at 100 μL of cell suspension per well, and the cell culture plates were incubated in a cell incubator at 37° C. overnight. The next day, dilutions (20 μL) of compounds with different concentrations were added. After one of the cell plates was cooled to room temperature, 60 μL of CTG reagent was added. The luminescence values were read on the instrument as G0. The other one was incubated in a cell incubator for 48 h. After 48 h, 60 μL of CTG reagent was added, and the luminescence values were read on the instrument as G3.
(§2) According to the corresponding proliferation rate and concentration of each gradient concentration well, a gradient curve of cell proliferation was fitted using XLFit software, and the GI50 values of compounds were calculated.

Compound	GI50
O=C1CCC(N2C(=O)c3cccc(NCc4cccc(C(=O)N[C@H]5CC[C@H](c6nc7cccnc7s6)CC5)c4)c3C2=O)C(=O)N1 (stereo partly drawn) [Example 61]	1.48 nM

The compounds below were run against T1, GSPT1 (Homo sapiens, UniProt P15170+Q96SW2) (assay: Degradation of GSPT1 by the compounds (HiBiT signal in GSPT1/HEK293 hibit cells)). Settings: 6 h incubation, Nano Glo HiBiT Lytic Detection.
T1 construct: host or cells: HEK293
Format: cell-based
Method: GSPT1/HEK293 hibit cell lines were constructed by Shanghai BioDuro Co., Ltd., HEK293 cell lines were purchased from ATCC (Cat #ATCC® CRL-1573™), DMEM media were purchased from ATCC (Cat #ATCC® 30-2002™), FBS was purchased from Gibco (Cat #10091148), Nano Glo HiBiT Lytic Detection System was purchased from Promega (Cat #N3040), and 96-well plates were purchased from coming (Cat #3610).
The degradation of GSPT1 by the compounds was determined by measuring the intensity of hibit signals in cells. Firstly, the cells were digested with pancreatin, and the digestion was then terminated with medium. The cells were centrifuged, and the supernatant was discarded. The centrifuged cells were resuspended in a fresh complete medium, and the cell density was adjusted to 2.5×10^4 cells/mL. The resuspended cells were inoculated into an opaque 96-well cell culture plate at 100 μL of cell suspension per well, and the cell culture plate was incubated in a cell incubator at 37° C. overnight. The next day, dilutions (20 μL) of compounds with different concentrations were added, and the plate was incubated in a cell incubator for 6 h. After 6 h, 60 μL of Nano Glo HiBiT Lytic Detection System reagent was added and the luminescence values were read on the instrument.
According to the corresponding degradation rate and concentration of each gradient concentration well, a gradient curve of degradation rate was fitted using XLFit software, and the DC50 values of compounds were calculated.

T1 sequence (P15170 whole entry): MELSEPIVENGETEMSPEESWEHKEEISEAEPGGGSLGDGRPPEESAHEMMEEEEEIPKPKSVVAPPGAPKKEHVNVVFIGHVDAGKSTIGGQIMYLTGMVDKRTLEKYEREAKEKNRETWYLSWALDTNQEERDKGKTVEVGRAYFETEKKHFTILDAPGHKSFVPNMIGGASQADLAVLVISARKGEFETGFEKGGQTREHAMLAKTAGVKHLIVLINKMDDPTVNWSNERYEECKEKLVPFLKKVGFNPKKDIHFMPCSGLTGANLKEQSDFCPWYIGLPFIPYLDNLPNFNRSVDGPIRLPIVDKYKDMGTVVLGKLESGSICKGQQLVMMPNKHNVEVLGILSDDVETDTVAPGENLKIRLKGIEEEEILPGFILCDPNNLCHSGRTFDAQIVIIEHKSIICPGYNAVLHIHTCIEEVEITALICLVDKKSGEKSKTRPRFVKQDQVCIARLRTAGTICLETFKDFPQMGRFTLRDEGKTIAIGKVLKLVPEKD
T1 sequence (Q96SW2 whole entry): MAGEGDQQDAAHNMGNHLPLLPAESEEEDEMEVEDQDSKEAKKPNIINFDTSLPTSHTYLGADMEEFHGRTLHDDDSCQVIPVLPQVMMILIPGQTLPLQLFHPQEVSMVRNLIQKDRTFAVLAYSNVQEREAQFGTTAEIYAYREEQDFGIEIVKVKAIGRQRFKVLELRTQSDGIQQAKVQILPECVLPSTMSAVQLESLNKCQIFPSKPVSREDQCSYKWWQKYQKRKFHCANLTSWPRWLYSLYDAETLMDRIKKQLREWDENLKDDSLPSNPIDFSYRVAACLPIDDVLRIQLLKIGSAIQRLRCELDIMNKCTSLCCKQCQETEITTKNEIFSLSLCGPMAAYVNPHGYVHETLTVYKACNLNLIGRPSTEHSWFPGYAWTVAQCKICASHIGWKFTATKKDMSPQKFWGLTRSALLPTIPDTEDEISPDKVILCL
T1 sequence (Q16531 whole entry partner): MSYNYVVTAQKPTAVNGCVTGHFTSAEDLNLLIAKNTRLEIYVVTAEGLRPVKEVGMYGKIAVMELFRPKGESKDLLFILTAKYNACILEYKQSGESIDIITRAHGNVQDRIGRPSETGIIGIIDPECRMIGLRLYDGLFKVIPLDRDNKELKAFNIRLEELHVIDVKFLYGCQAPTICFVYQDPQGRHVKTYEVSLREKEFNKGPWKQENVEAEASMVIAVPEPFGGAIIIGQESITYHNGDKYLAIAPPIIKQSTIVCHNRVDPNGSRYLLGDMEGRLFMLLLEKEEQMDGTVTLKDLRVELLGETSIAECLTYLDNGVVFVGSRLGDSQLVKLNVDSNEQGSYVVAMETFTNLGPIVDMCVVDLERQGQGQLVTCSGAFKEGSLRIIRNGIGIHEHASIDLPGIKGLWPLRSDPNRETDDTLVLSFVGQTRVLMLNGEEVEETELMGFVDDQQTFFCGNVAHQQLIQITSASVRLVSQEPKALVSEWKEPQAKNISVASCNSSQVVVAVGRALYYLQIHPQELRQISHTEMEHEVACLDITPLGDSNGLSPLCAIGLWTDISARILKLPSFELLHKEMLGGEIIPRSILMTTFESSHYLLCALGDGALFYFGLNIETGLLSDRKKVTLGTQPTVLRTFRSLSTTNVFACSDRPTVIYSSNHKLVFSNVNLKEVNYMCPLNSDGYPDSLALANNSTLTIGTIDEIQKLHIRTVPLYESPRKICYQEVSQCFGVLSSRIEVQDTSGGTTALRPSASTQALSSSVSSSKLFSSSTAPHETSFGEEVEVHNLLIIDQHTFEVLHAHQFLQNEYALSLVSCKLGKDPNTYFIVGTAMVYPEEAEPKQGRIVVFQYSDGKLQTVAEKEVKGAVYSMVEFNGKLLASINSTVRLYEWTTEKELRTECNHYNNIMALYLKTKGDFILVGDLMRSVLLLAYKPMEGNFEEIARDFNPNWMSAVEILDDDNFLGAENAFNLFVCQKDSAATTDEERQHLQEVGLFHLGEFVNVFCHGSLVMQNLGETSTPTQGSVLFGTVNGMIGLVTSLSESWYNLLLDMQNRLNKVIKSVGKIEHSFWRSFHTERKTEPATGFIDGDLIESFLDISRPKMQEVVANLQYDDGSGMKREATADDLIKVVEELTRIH

Compound	DC50
O=C1CCC(N2C(=O)c3cccc(NCc4cccc(C(=O)N[C@H]5CC[C@H](c6nc7cccnc7s6)CC5)c4)c3C2=O)C(=O)N1 (stereo partly drawn) [Example 61]	< 100 nM
Cn1c(C2CCC(NC(=O)CCCCNc3cccc4c3C(=O)N(C3CCC(=O)NC3=O)C4=O)CC2)nc2c3c(C4CCOCC4)c[nH]c3ncc21 (stereo not drawn) [Example 113]	< 100 nM
COc1ccc(CNc2cccc3c2C(=O)N(C2CCC(=O)NC2=O)C3=O)cc1C(=O)N[C@H]1CC[C@H](c2nc3cccnc3s2)CC1 (stereo partly drawn) [Example 94]	< 100 nM
O=C1CCC(N2C(=O)c3cccc(NCc4cccc(NC(=O)[C@H]5CC[C@H](c6nc7cccnc7s6)CC5)c4F)c3C2=O)C(=O)N1 (stereo partly drawn) [Example 81]	< 100 nM

Each compound was assayed on SU-DHL-2 cells (assay: SU-DHL-2 cell killing experiment (CellTiter-Glo cell viability)). Settings: Homo sapiens, 48 h incubation, CTG luminescence.
Format: cell-based
Method: as §1, with “SU-DHL-2” for “Hep3B”, “CRL-2956™), RPMI1640” for “HB-8064™), EMEM”, “30-2001™),” for “30-2003™),”
(§3) The effect of compounds on the growth of SU-DHL-2 cells was determined by measuring cell viability and growth rate. Firstly, cells in the logarithmic growth phase were collected and centrifuged, and the culture supernatant was discarded. The centrifuged cells were resuspended in a fresh complete medium, and the cell density was adjusted to 5×10^4 cells/mL. The resuspended cells were inoculated into two identical opaque 96-well cell culture plates at 100 μL of cell suspension per well, and the cell culture plates were incubated in a cell incubator at 37° C. for 4 h. After 4 h, dilutions (20 μL) of compounds with different concentrations were added. After one of the cell plates was cooled to room temperature, 60 μL of CTG reagent was added, and the luminescence values were read on the instrument as G0. The other one was incubated in a cell incubator for 48 h. After 48 h, 60 μL of CTG reagent was added, and the luminescence values were read on the instrument as G3.
as §2

Compound	GI50
O=C1CCC(N2C(=O)c3cccc(NCc4cccc(NC(=O)[C@H]5CC[C@H](c6nc7cccnc7s6)CC5)c4F)c3C2=O)C(=O)N1 (stereo partly drawn) [Example 81]	5.62 nM

Each compound was assayed on Jurkat cells (assay: Jurkat cell killing experiment (CellTiter-Glo cell viability)). Settings: Homo sapiens, 48 h incubation, CTG luminescence.
Format: cell-based
Method: as §1, with “Jurkat” for “Hep3B”, “TIB-152™), RPMI1640” for “HB-8064™), EMEM”, “30-2001™),” for “30-2003™),”
as §3, with “Jurkat” for “SU-DHL-2”
as §2

Compound	GI50
COc1ccc2c(c1)nc([C@H]1CC[C@H](N(C)C(=O)c3cc(CNc4cccc5c4C(=O)N(C4CCC(=O)NC4=O)C5=O)ccn3)CC1)n2C (stereo partly drawn) [Example 105]	1.3 nM
COc1ccc(CNc2cccc3c2C(=O)N(C2CCC(=O)NC2=O)C3=O)cc1C(=O)N[C@H]1CC[C@H](c2nc3cccnc3s2)CC1 (stereo partly drawn) [Example 94]	2.51 nM
O=C1CCC(N2C(=O)c3cccc(NCc4cccc(NC(=O)[C@H]5CC[C@H](c6nc7cccnc7s6)CC5)c4F)c3C2=O)C(=O)N1 (stereo partly drawn) [Example 81]	11.4 nM

These compounds were tested on Toledo cells (assay: Toledo cell killing experiment (CellTiter-Glo cell viability)). Settings: Homo sapiens, 48 h incubation, CTG luminescence.
Format: cell-based
Method: as §1, with “Toledo” for “Hep3B”, “CRL-2631™), RPMI1640” for “HB-8064™), EMEM”, “30-2001™),” for “30-2003™),”
as §3, with “Toledo” for “SU-DHL-2”
as §2

Compound	GI50
O=C1CCC(N2C(=O)c3cccc(NCc4cccc(C(=O)N[C@H]5CC[C@H](c6nc7cccnc7s6)CC5)c4)c3C2=O)C(=O)N1 (stereo partly drawn) [Example 61]	5.31 nM
Cn1c(C2CCC(NC(=O)CCCCNc3cccc4c3C(=O)N(C3CCC(=O)NC3=O)C4=O)CC2)nc2c3c(C4CCOCC4)c[nH]c3ncc21 (stereo not drawn) [Example 113]	1.53 nM
O=C1CCC(N2C(=O)c3cccc(NCc4cccc(NC(=O)[C@H]5CC[C@H](c6nc7cccnc7s6)CC5)c4F)c3C2=O)C(=O)N1 (stereo partly drawn) [Example 81]	4.03 nM

Each compound was assayed on NCI-H929 cells (assay: NCI-H929 cell killing experiment (CellTiter-Glo cell viability)). Settings: Homo sapiens, 48 h incubation, CTG luminescence.
Format: cell-based
Method: as §1, with “NCI-H929” for “Hep3B”, “CRL-9068™), RPMI1640” for “HB-8064™), EMEM”, “30-2001™),” for “30-2003™),”
as §3, with “2. Method The effect” for “The effect”, “growth of NCI-H929 cells was” for “growth of SU-DHL-2 cells was”
as §2

Compound	GI50
O=C1CCC(N2C(=O)c3cccc(NCc4cccc(C(=O)N[C@H]5CC[C@H](c6nc7cccnc7s6)CC5)c4)c3C2=O)C(=O)N1 (stereo partly drawn) [Example 61]	1.08 nM
O=C1CCC(N2C(=O)c3cccc(NCc4cccc(NC(=O)[C@H]5CC[C@H](c6nc7cccnc7s6)CC5)c4F)c3C2=O)C(=O)N1 (stereo partly drawn) [Example 81]	0.33 nM

The compounds below were run on HL60 cells (assay: HL60 cell killing experiment (CellTiter-Glo cell viability)). Settings: Homo sapiens, HL-60, 48 h incubation, CTG luminescence.
Format: cell-based
Method: as §1, with “HL60” for “Hep3B”, “CCL-240™), IMDM” for “HB-8064™), EMEM”, “30-2005™),” for “30-2003™),”, “corning” for “coming”
as §3, with “HL60” for “SU-DHL-2”, “viability.” for “viability and growth rate.”, “two” for “two identical”
as §2

Compound	GI50
O=C1CCC(N2C(=O)c3cccc(NCc4cccc(C(=O)N[C@H]5CC[C@H](c6nc7cccnc7s6)CC5)c4)c3C2=O)C(=O)N1 (stereo partly drawn) [Example 61]	< 100 nM
Cn1c(C2CCC(NC(=O)CCCCNc3cccc4c3C(=O)N(C3CCC(=O)NC3=O)C4=O)CC2)nc2c3c(C4CCOCC4)c[nH]c3ncc21 (stereo not drawn) [Example 113]	< 100 nM
COc1ccc(CNc2cccc3c2C(=O)N(C2CCC(=O)NC2=O)C3=O)cc1C(=O)N[C@H]1CC[C@H](c2nc3cccnc3s2)CC1 (stereo partly drawn) [Example 94]	< 100 nM
O=C1CCC(N2C(=O)c3cccc(NCc4cccc(NC(=O)[C@H]5CC[C@H](c6nc7cccnc7s6)CC5)c4F)c3C2=O)C(=O)N1 (stereo partly drawn) [Example 81]	< 100 nM
